Here are results for nine molecules from ChEMBL document CHEMBL1201862, “PubChem BioAssay data set” (2004).

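In this assay, cells in 96-well plates receive the compound at five concentrations for 48 hours. Endpoints are linearly interpolated between the surrounding concentrations. GI50 marks 50% less growth.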 Calls of active or inactive are those of the source. No stated cut-off is given here; in the data, active = GI50 up to about 1.1 µM and inactive = higher.

What all share (experiment): inhibition of tumour cell growth, NCI panel, 48 h
Assay [1] deals with OVCAR-8.
Assay [2] relates to NCI-H226.
In assay [3] the test system is HL-60.
Assay [4] relates to COLO 205.
Assay [5] concerns KM12.
In assay [6] the test system is SK-MEL-5.
The subject of assay [7] is OVCAR-3.
Assay [8] has as its system HOP-92.
In assay [9] the test system is HCT-15.
Assay [10] has as its system NCI-H460.
Assay [11] concerns OVCAR-5.
For assay [12], the system named is A549.
The subject of assay [13] is 786-0.
Assay [14] deals with UO-31.
Assay [15] concerns OVCAR-4.
The subject of assay [16] is SF-268.
Assay [17] deals with SNB-19.
Assay [18] deals with SF-539.
Assay [19] relates to A498.

For the molecule `CCP(C)(=O)CC`, the GI50 in assay [1], in [2], in assay [3], in assay [4], in assay [5] and in [6] was > 100 µM (inactive) each time. Moreover, the GI50 in [7] is > 100 µM (inactive); in assay [8] it was > 100 µM (inactive); in assay [9] it was above 100 µM; in assay [10] it was > 100 µM (inactive); in assay [11] it was > 100 µM (inactive); in assay [12], > 100 µM (inactive). Further, the GI50 in [13], in assay [14], in assay [15], in [16], in [17] and in assay [18] was > 100 µM (inactive) throughout.
`O=C1C(=O)N(c2ccc(Cl)c(Cl)c2)C(=O)C(=O)C1c1nc2ccccc2o1`: the GI50 was > 100 µM (inactive) in assay [1]; > 100 µM (inactive) in [2]; 22.9 µM (inactive) in [3]; 47.2 µM (inactive) in assay [4]; > 100 µM (inactive) in [5]; > 100 µM (inactive) in assay [7]. The GI50 in assay [8] was > 100 µM (inactive); in [9], 50.2 µM; in [10], > 100 µM (inactive); in [11], > 100 µM (inactive); in assay [12], > 100 µM (inactive); in assay [13] it was > 100 µM (inactive). Further, the GI50 in [14] is > 100 µM (inactive); in [15], 95.7 µM (inactive); in assay [16], > 100 µM (inactive); in [17], 72.9 µM (inactive); in assay [18], > 100 µM (inactive).
Take `CC1(C)CC[C@]2(C(=O)O)CC[C@]3(C)C(=CCC4=C5C[C@H](O)[C@H](O)[C@@](C)(CO)[C@@]5(C)CC[C@]43C)[C@@H]2C1`: the GI50 in [1] is 44.3 µM (inactive); in assay [19] it was 17.8 µM (inactive); in assay [3], 6.05 µM (inactive); in assay [4], 15.2 µM (inactive); in assay [5], 38.9 µM (inactive); in assay [6], 22.9 µM (inactive). Moreover, the GI50 in assay [7] is > 100 µM (inactive); in assay [8] it was > 100 µM (inactive); in assay [9], 38.9 µM; in [10] it was 30.4 µM (inactive); in assay [11], > 100 µM (inactive); in assay [12], 38.5 µM (inactive). In addition, the GI50 in assay [13] is 31.8 µM (inactive); in [14] it was 47.1 µM (inactive); in assay [15] it was 36.7 µM (inactive); in assay [16] it was 51.4 µM (inactive); in assay [17] it was 16 µM (inactive); in assay [18], 56.9 µM (inactive).
Take `NC1=NN(c2ccccc2)C(=O)C1C(=O)CCC(=O)Nc1cccc(C(F)(F)F)c1` (stereo not drawn): the GI50 in assay [1], in assay [2], in [3], in assay [4], in [5] and in assay [6] was > 100 µM (inactive) in each case. The GI50 is > 100 µM (inactive) in assay [7]; > 100 µM (inactive) in assay [8]; 30.8 µM in [9]; > 100 µM (inactive) in assay [10]; > 100 µM (inactive) in assay [11]; > 100 µM (inactive) in [12]. Besides, the GI50 in [13], in assay [14], in assay [15], in assay [16], in assay [17] and in [18] was > 100 µM (inactive) throughout.
As for `c1ccc(SCCCC(Sc2ccccc2)Sc2ccccc2)cc1`, the GI50 in assay [1], in [19], in assay [3], in assay [4], in assay [5] and in [6] was > 100 µM (inactive) in each case. In addition, the GI50 in assay [7] was > 100 µM (inactive); in [8], 49.9 µM (inactive); in assay [9], above 100 µM; in assay [10], > 100 µM (inactive); in [12], > 100 µM (inactive); in [13] it was > 100 µM (inactive). Moreover, the GI50 in assay [14], in [15], in [16], in assay [17] and in [18] was > 100 µM (inactive) in each case.
`O=c1[nH]c(=O)n(C2CC(O)C(CO)O2)cc1COCC(F)(F)F` (stereo not drawn): the GI50 in assay [1], in assay [19], in [3], in assay [4], in assay [5] and in assay [6] was > 100 µM (inactive) in each case. Besides, the GI50 in assay [7], in assay [8], in assay [10], in assay [11], in assay [12] and in assay [13] was > 100 µM (inactive) throughout. The GI50 in assay [14], in [15], in assay [16], in assay [17] and in assay [18] was > 100 µM (inactive) each time.
Consider `Nc1nc(O)c([N+](=O)[O-])c(NCCOCP(=O)(O)O)n1`, for which the GI50 in assay [1], in assay [2], in [3], in assay [4], in [5] and in assay [7] was > 100 µM (inactive) throughout. The GI50 in assay [8], in assay [10], in assay [12], in [13], in [14] and in assay [16] was > 100 µM (inactive) each time. The GI50 in assay [17] and in assay [18] was > 100 µM (inactive) each time.
Consider `C=C1CCC2[C@](C)(CCC[C@]2(C)C(=O)O)[C@@H]1CCc1ccoc1` (stereo partly drawn), for which the GI50 in assay [19] is 47 µM (inactive); in assay [2], 20.6 µM (inactive); in assay [3], 45.8 µM (inactive); in assay [4] it was 17.4 µM (inactive); in [5], 18.7 µM (inactive); in assay [6], 36.6 µM (inactive). In addition, the GI50 in assay [7] was 24 µM (inactive); in assay [9], 26.8 µM; in assay [10], 33.9 µM (inactive); in assay [11] it was 90.6 µM (inactive); in assay [12], 34.5 µM (inactive); in assay [13], 48.6 µM (inactive). The GI50 was 36.5 µM (inactive) in assay [14]; 48.6 µM (inactive) in assay [15]; 50.4 µM (inactive) in assay [16]; 43.5 µM (inactive) in [17]; 37 µM (inactive) in assay [18].
With `N#CC(NNC(=O)c1ccccc1O)c1ccc(O)cc1` (stereo not drawn), the GI50 in [1] was 7.66 µM (inactive); in assay [2] it was 3.21 µM (inactive); in assay [3] it was 5.32 µM (inactive); in assay [4], 29.2 µM (inactive); in assay [5], 4.94 µM (inactive); in assay [6], 19.4 µM (inactive). Moreover, the GI50 was 9.55 µM (inactive) in assay [7]; 3.48 µM (inactive) in assay [8]; 8.63 µM in assay [9]; 3.79 µM (inactive) in assay [10]; 17.6 µM (inactive) in assay [11]; 2.74 µM (inactive) in assay [12]. For the same molecule, the GI50 in [13] was 8.02 µM (inactive); in [14], 2.3 µM (inactive); in [15] it was 13.1 µM (inactive); in assay [16] it was 1.79 µM (inactive); in [18], 3.78 µM (inactive).
